Publication PMC9067983, “Identification of highly selective type II kinase inhibitors with chiral peptidomimetic tails” (Journal of Enzyme Inhibition and Medicinal Chemistry, 2022)
Where a SMILES comes first, the peptide text is derived from it. [ ]: non-standard residue; d: D form. The star is where a group is joined. X1 = Cc1ccc(Nc2ncc3c(n2)N(C)C(=O)N(c2cc(C(=O)*)ccc2C)C3)cn1; Aib = CC(C)(N)C(=O)O

How the values were obtained:
Assay in all cases: kinase selectivity profiling
Type in all cases: biochemical
Settings in all cases: 10µM ATP, read-out: % inhibition (relative to DMSO)
CAMK2a = target: T1, CAMK2a (Homo sapiens, UniProt Q9UQM7)
T1 construct: purchased Reaction Biology Corp
Experimental: (§1) Full panel kinase profiling and kinase IC50 measurement were performed by using Reaction Biology Corp. (San Diego, USA).

FRK/PTK5 = target: T2, FRK/PTK5 (Homo sapiens, UniProt P42685)
T2 construct: purchased Reaction Biology Corp
Experimental: as §1

WNK1 = target: T3, WNK1 (Homo sapiens, UniProt Q9H4A3)
T3 construct: purchased Reaction Biology Corp
Experimental: as §1

FLT1/VEGFR1 = target: T4, FLT1/VEGFR1 (Homo sapiens, UniProt P17948)
T4 construct: purchased Reaction Biology Corp
Experimental: as §1

ERK1 = target: T5, ERK1 (Homo sapiens, UniProt P27361)
T5 construct: purchased Reaction Biology Corp
Experimental: as §1

MUSK = target: T6, MUSK (Homo sapiens, UniProt O15146)
T6 construct: purchased Reaction Biology Corp
Experimental: as §1

BTK = target: T7, BTK (Homo sapiens, UniProt Q06187)
T7 construct: purchased Reaction Biology Corp
Experimental: as §1

ULK1 = target: T8, ULK1 (Homo sapiens, UniProt O75385)
T8 construct: purchased Reaction Biology Corp
Experimental: as §1

ERK5/MAPK7 = target: T9, ERK5/MAPK7 (Homo sapiens, UniProt Q13164)
T9 construct: purchased Reaction Biology Corp
Experimental: as §1

PKN3/PRK3 = target: T10, PKN3/PRK3 (Homo sapiens, UniProt Q6P5Z2)
T10 construct: purchased Reaction Biology Corp
Experimental: as §1

ERBB2/HER2 = target: T11, ERBB2/HER2 (Homo sapiens, UniProt P04626)
T11 construct: purchased Reaction Biology Corp
Experimental: as §1

TRKC = target: T12, TRKC (Homo sapiens, UniProt Q16288)
T12 construct: purchased Reaction Biology Corp
Experimental: as §1

COT1/MAP3K8 = target: T13, COT1/MAP3K8 (Homo sapiens, UniProt P41279)
T13 construct: purchased Reaction Biology Corp
Experimental: as §1

FGFR1 = target: T14, FGFR1 (Homo sapiens, UniProt P11362)
T14 construct: purchased Reaction Biology Corp
Experimental: as §1

Lck = target: T15, Lck (Homo sapiens, UniProt P06239)
T15 construct: purchased Reaction Biology Corp
Experimental: as §1

CAMK2d = target: T16, CAMK2d (Homo sapiens, UniProt Q13557)
T16 construct: purchased Reaction Biology Corp
Experimental: as §1

MNK1 = target: T17, MNK1 (Homo sapiens, UniProt Q9BUB5)
T17 construct: purchased Reaction Biology Corp
Experimental: as §1

STK22D/TSSK1 = target: T18, STK22D/TSSK1 (Homo sapiens, UniProt Q9BXA7)
T18 construct: purchased Reaction Biology Corp
Experimental: as §1

PKN1/PRK1 = target: T19, PKN1/PRK1 (Homo sapiens, UniProt Q16512)
T19 construct: purchased Reaction Biology Corp
Experimental: as §1

TRKA = target: T20, TRKA (Homo sapiens, UniProt P04629)
T20 construct: purchased Reaction Biology Corp
Experimental: as §1

MYLK3 = target: T21, MYLK3 (Homo sapiens, UniProt Q32MK0)
T21 construct: purchased Reaction Biology Corp
Experimental: as §1

EPHA6 = target: T22, EPHA6 (Homo sapiens, UniProt Q9UF33)
T22 construct: purchased Reaction Biology Corp
Experimental: as §1

MEKK2 = target: T23, MEKK2 (Homo sapiens, UniProt Q9Y2U5)
T23 construct: purchased Reaction Biology Corp
Experimental: as §1

WNK2 = target: T24, WNK2 (Homo sapiens, UniProt Q9Y3S1)
T24 construct: purchased Reaction Biology Corp
Experimental: as §1

CSK = target: T25, CSK (Homo sapiens, UniProt P41240)
T25 construct: purchased Reaction Biology Corp
Experimental: as §1

Abl1 = target: T26, Abl1 (Homo sapiens, UniProt P00519)
T26 construct: purchased Reaction Biology Corp
Experimental: as §1

MSSK1/STK23 = target: T27, MSSK1/STK23 (Homo sapiens, UniProt Q9UPE1)
T27 construct: purchased Reaction Biology Corp
Experimental: as §1

MEKK1 = target: T28, MEKK1 (Homo sapiens, UniProt Q13233)
T28 construct: purchased Reaction Biology Corp
Experimental: as §1

MAK = target: T29, MAK (Homo sapiens, UniProt P20794)
T29 construct: purchased Reaction Biology Corp
Experimental: as §1

PLK1 = target: T30, PLK1 (Homo sapiens, UniProt P53350)
T30 construct: purchased Reaction Biology Corp
Experimental: as §1

DCAMKL2 = target: T31, DCAMKL2 (Homo sapiens, UniProt Q8N568)
T31 construct: purchased Reaction Biology Corp
Experimental: as §1

CK2a2 = target: T32, CK2a2 (Homo sapiens, UniProt P19784)
T32 construct: purchased Reaction Biology Corp
Experimental: as §1

PKCb2 = target: T33, PKCb2 (Homo sapiens, UniProt P05771)
T33 construct: purchased Reaction Biology Corp
Experimental: as §1

MEK3 = target: T34, MEK3 (Homo sapiens, UniProt P46734)
T34 construct: purchased Reaction Biology Corp
Experimental: as §1

MLK3/MAP3K11 = target: T35, MLK3/MAP3K11 (Homo sapiens, UniProt Q16584)
T35 construct: purchased Reaction Biology Corp
Experimental: as §1

PAK4 = target: T36, PAK4 (Homo sapiens, UniProt O96013)
T36 construct: purchased Reaction Biology Corp
Experimental: as §1

NLK = target: T37, NLK (Homo sapiens, UniProt Q9UBE8)
T37 construct: purchased Reaction Biology Corp
Experimental: as §1

FES/FPS = target: T38, FES/FPS (Homo sapiens, UniProt P07332)
T38 construct: purchased Reaction Biology Corp
Experimental: as §1

Lyn = target: T39, Lyn (Homo sapiens, UniProt P07948)
T39 construct: purchased Reaction Biology Corp
Experimental: as §1

CDK6/cyclin D3 = target: T40, CDK6/cyclin D3 (Homo sapiens, UniProt Q00534)
T40 construct: purchased Reaction Biology Corp
Experimental: as §1

GRK6 = target: T41, GRK6 (Homo sapiens, UniProt P43250)
T41 construct: purchased Reaction Biology Corp
Experimental: as §1

RIPK3 = target: T42, RIPK3 (Homo sapiens, UniProt Q9Y572)
T42 construct: purchased Reaction Biology Corp
Experimental: as §1

MLK2/MAP3K10 = target: T43, MLK2/MAP3K10 (Homo sapiens, UniProt Q02779)
T43 construct: purchased Reaction Biology Corp
Experimental: as §1

T18 sequence (Q9BXA7 whole entry): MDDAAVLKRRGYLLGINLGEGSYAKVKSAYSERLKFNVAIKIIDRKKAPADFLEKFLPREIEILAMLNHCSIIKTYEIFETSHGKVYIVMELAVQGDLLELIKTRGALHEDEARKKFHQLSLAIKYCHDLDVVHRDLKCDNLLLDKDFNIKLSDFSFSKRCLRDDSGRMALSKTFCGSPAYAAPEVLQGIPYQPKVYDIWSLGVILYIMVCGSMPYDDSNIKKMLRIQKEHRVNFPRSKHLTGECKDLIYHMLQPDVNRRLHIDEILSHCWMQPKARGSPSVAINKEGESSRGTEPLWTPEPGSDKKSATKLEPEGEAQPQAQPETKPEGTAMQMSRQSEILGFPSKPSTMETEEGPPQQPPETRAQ
T21 sequence (Q32MK0 whole entry): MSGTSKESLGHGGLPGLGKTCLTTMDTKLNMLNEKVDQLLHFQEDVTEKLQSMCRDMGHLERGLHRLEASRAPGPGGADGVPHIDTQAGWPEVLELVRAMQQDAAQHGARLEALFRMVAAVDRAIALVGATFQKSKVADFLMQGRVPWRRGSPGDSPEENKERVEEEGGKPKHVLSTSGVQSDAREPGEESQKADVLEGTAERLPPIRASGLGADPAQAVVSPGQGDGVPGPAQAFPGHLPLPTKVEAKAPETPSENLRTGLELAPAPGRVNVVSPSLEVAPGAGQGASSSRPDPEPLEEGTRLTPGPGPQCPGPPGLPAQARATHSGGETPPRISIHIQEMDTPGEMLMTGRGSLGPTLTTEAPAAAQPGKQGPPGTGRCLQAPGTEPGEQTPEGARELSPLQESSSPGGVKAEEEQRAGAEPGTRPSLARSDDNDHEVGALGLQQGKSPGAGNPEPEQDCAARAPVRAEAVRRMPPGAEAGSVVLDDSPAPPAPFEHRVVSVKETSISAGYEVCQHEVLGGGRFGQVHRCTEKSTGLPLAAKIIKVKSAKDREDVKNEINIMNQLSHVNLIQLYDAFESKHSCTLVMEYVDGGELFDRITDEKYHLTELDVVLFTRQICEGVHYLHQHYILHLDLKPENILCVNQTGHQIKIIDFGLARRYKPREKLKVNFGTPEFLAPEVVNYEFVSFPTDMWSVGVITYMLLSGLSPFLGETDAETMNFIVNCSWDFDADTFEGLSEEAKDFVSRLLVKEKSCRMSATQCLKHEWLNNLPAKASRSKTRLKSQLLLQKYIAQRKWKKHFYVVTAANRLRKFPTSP
T41 sequence (P43250 whole entry): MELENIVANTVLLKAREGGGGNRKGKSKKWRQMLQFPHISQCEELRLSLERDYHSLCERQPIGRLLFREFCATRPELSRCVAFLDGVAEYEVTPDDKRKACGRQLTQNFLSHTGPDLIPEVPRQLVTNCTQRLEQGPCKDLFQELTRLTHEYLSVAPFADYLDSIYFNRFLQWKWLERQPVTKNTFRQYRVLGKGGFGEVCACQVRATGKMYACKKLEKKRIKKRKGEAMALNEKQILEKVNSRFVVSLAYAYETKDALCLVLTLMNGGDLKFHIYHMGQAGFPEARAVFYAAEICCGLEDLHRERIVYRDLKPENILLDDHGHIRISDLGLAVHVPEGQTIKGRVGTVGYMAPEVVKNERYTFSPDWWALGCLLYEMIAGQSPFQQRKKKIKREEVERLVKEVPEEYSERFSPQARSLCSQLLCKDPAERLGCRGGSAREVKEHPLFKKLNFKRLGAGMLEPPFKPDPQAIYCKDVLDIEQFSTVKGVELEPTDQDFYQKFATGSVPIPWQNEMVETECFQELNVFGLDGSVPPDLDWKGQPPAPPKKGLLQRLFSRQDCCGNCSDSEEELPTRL
T33 sequence (P05771 1-673 isoform P05771-2): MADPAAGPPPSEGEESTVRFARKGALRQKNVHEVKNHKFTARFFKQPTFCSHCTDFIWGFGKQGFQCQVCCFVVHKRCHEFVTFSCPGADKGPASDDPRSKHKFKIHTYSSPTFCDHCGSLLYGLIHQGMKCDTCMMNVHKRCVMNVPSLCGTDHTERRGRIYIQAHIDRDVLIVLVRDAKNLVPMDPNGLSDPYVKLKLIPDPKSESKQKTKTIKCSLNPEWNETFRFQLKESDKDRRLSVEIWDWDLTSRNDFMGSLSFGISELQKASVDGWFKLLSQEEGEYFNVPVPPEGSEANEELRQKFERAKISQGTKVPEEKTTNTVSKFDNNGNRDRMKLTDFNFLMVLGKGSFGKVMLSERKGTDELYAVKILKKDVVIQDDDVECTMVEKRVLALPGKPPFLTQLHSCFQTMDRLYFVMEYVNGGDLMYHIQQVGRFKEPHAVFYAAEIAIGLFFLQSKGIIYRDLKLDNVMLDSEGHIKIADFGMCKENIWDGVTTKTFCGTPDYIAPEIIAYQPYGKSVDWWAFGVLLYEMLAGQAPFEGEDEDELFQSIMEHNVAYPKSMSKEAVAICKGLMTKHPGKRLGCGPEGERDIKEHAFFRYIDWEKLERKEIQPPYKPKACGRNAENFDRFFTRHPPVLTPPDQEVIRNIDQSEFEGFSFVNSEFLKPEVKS
T14 sequence (P11362 22-822): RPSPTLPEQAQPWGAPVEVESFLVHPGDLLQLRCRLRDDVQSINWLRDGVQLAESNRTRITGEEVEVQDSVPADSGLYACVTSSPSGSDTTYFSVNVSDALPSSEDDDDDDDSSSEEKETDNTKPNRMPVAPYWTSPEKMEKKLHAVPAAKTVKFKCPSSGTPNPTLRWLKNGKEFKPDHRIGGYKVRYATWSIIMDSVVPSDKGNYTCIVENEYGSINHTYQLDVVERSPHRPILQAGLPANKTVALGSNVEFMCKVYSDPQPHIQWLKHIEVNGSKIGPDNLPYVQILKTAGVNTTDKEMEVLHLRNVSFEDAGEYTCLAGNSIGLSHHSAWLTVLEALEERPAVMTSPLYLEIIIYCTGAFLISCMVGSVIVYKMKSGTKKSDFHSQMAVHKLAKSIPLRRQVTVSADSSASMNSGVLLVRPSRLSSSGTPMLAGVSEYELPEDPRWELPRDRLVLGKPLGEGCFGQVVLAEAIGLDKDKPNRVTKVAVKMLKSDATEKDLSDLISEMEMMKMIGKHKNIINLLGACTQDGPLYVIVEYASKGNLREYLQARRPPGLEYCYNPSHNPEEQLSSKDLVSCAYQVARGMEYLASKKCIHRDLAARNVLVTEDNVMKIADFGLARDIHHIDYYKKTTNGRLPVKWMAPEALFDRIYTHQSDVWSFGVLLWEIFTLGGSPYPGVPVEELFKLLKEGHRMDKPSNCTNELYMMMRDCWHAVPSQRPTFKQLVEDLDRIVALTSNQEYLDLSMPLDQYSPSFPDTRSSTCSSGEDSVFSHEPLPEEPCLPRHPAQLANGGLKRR
T6 sequence (O15146 24-869): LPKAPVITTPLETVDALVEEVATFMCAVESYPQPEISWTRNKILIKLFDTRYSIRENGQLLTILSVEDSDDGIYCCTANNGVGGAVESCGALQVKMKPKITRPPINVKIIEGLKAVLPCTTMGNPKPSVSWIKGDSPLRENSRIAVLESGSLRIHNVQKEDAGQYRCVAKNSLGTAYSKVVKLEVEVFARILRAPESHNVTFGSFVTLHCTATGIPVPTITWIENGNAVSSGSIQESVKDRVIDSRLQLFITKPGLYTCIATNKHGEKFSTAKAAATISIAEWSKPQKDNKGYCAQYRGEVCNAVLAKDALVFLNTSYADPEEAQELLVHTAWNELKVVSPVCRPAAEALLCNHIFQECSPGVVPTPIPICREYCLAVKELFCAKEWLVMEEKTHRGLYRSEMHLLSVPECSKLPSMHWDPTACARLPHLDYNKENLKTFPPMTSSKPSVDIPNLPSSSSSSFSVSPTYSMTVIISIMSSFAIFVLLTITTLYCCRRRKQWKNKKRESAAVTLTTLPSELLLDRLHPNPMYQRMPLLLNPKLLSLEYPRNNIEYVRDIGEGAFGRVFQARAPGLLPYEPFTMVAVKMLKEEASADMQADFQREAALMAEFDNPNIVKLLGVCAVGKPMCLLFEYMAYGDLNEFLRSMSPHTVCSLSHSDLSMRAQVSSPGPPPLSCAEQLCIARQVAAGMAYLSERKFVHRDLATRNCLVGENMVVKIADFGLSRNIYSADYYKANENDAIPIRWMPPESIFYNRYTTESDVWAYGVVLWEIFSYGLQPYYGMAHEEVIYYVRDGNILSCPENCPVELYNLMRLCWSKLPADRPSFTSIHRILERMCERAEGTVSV
T36 sequence (O96013 whole entry): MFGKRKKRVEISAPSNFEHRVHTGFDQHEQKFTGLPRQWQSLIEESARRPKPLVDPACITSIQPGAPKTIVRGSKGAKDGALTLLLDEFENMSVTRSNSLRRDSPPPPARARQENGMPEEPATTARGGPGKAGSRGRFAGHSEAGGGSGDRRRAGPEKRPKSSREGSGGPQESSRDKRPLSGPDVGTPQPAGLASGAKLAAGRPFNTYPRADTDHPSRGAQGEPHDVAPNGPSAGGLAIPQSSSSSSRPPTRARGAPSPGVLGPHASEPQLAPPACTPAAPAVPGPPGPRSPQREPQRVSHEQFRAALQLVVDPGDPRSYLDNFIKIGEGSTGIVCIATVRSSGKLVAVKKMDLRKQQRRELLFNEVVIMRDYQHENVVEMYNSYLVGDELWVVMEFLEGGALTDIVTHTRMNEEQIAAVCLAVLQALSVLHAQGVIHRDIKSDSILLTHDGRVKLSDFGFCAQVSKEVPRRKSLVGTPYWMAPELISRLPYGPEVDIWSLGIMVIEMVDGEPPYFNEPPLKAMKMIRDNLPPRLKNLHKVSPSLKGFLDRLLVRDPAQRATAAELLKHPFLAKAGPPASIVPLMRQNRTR
T5 sequence (P27361 whole entry): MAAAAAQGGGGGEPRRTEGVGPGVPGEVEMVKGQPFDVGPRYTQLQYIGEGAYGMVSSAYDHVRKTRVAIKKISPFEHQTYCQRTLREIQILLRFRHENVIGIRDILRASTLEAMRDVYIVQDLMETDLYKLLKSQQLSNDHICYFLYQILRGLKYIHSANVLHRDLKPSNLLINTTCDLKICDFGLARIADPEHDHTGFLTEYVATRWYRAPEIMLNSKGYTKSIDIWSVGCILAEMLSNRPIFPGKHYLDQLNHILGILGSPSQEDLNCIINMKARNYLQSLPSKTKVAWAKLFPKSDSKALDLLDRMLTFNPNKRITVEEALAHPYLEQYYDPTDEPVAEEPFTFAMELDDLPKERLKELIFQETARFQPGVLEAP

Structure (SMILES): Cc1ccc(Nc2ncc3c(n2)N(C)C(=O)N(c2cc(C(=O)N[C@H](C(=O)N4CCC[C@H]4C(=O)NC(C)(C)C(=O)N[C@@H](CC(C)C)C(=O)N(C)C)C(C)C)ccc2C)C3)cn1 [7a, (S)-N-(1-(((S)-1-(dimethylamino)-4-methyl-1-oxopentan-2-yl)amino)-2-methyl-1-oxopropan-2-yl)-1-((4-methyl-3-(1-methyl-7-((6-methylpyridin-3-yl)amino)-2-oxo-1,4-dihydropyrimido[4,5-d]pyrimidin-3(2H)-yl)benzoyl)-L-valyl)pyrrolidine-2-carboxamide] (X1-VP[Aib]L-NMe2)
- inhibition at 1 µM (CAMK2a): 8%
- inhibition at 1 µM (FRK/PTK5): 15%
- inhibition at 1 µM (WNK1): 0%
- inhibition at 1 µM (FLT1/VEGFR1): 9%
- inhibition at 1 µM (ERK1): 7%
- inhibition at 1 µM (MUSK): 7%
- inhibition at 1 µM (BTK): 6%
- inhibition at 1 µM (ULK1): 0%
- inhibition at 1 µM (ERK5/MAPK7): 5%
- inhibition at 1 µM (PKN3/PRK3): 8%
- inhibition at 1 µM (ERBB2/HER2): 10%
- inhibition at 1 µM (TRKC): 21%
- inhibition at 1 µM (COT1/MAP3K8): 1%
- inhibition at 1 µM (FGFR1): 37%
- inhibition at 1 µM (Lck): 94%
- inhibition at 1 µM (CAMK2d): 0%
- inhibition at 1 µM (MNK1): 8%
- inhibition at 1 µM (STK22D/TSSK1): 6%
- inhibition at 1 µM (PKN1/PRK1): 1%
- inhibition at 1 µM (TRKA): 0%
- inhibition at 1 µM (MYLK3): 0%
- inhibition at 1 µM (EPHA6): 5%
- inhibition at 1 µM (MEKK2): 0%
- inhibition at 1 µM (WNK2): 7%
- inhibition at 1 µM (CSK): 44%
- inhibition at 1 µM (Abl1): 63%
- inhibition at 1 µM (MSSK1/STK23): 10%
- inhibition at 1 µM (MEKK1): 3%
- inhibition at 1 µM (MAK): 0%
- inhibition at 1 µM (PLK1): 0%
- inhibition at 1 µM (DCAMKL2): 0%
- inhibition at 1 µM (CK2a2): 3%
- inhibition at 1 µM (PKCb2): 0%
- inhibition at 1 µM (MEK3): 0%
- inhibition at 1 µM (MLK3/MAP3K11): 34%
- inhibition at 1 µM (PAK4): 0%
- inhibition at 1 µM (NLK): 3%
- inhibition at 1 µM (FES/FPS): 18%
- inhibition at 1 µM (Lyn): 73%
- inhibition at 1 µM (CDK6/cyclin D3): 0%
- inhibition at 1 µM (GRK6): 4%
- inhibition at 1 µM (RIPK3): 0%
- inhibition at 1 µM (MLK2/MAP3K10): 16%
